From patent US20060210528A1, “Therapy for tropical diseases” (Aspire Biotech, Inc., priority 2001, published 2006)

System: plantar warts
Assay: Treatment of plantar warts on a patient's feet with an in situ polymeric film versus freezing
Format: in vivo, human
Description: The following examples illustrate how the methods of this invention could be used.
A patient presents to a dermatologist with two similar plantar warts on the soles of their left and right feet. The wart on the right foot is treated by freezing with liquid nitrogen.

With `N#N` [liquid nitrogen] the “pain on treated foot” value (plantar wart on sole of foot) was “makes walking on the foot painful for several days”, the “time until wart resolves” value (plantar wart on sole of foot, film re-applied every 3-4 days) was 3 weeks and the “return of wart after resolution” value (plantar wart, film treatment continued two weeks after resolution) was “has returned after two months”.
